{
  "source": "ChEMBL document CHEMBL2424561",
  "about": "“Discovery of new antitubercular agents by combining pyrazoline and benzoxazole pharmacophores: design, synthesis and insights into the binding interactions” (2013)",
  "data": [
    {"system": "Mycobacterium tuberculosis", "experiment": "Antitubercular activity against multidrug-resistant Mycobacterium tuberculosis after 6 weeks", "format": "functional", "units": {"MIC": "µg/mL"}, "values": [
      {"smiles": "CC(=O)N1N=C(c2ccccc2Br)CC1c1ccc2oc(N)nc2c1", "note": "(stereo not given)", "MIC": 12.5},
      {"smiles": "CC(=O)N1N=C(c2ccccc2Br)CC1c1cc(N)c(O)c(Cl)c1", "note": "(stereo not given)", "MIC": 25},
      {"smiles": "CC(=O)N1N=C(c2ccccc2)CC1c1cc(Cl)c2oc(N)nc2c1", "note": "(stereo not given)", "MIC": 25},
      {"smiles": "CC(=O)N1N=C(c2ccccc2Br)CC1c1ccc2oc(S)nc2c1", "note": "(stereo not given)", "MIC": 6.25},
      {"smiles": "COc1cc(C2CC(c3ccccc3Br)=NN2C(C)=O)cc2nc(S)oc12", "note": "(stereo not given)", "MIC": 25},
      {"smiles": "CC(=O)N1N=C(c2ccccc2)CC1c1cc(N)c(O)c(Cl)c1", "note": "(stereo not given)", "MIC": 25},
      {"smiles": "COc1cc(C2CC(c3ccc(Cl)cc3Cl)=NN2C(C)=O)cc2nc(S)oc12", "note": "(stereo not given)", "MIC": 12.5},
      {"smiles": "COc1cc(C2CC(c3ccc(Cl)cc3Cl)=NN2C(C)=O)cc2nc(N)oc12", "note": "(stereo not given)", "MIC": 12.5},
      {"smiles": "COc1cc(C2CC(c3ccc(F)cc3)=NN2C(C)=O)cc2nc(S)oc12", "note": "(stereo not given)", "MIC": 6.25},
      {"smiles": "CC(=O)N1N=C(c2ccccc2)CC1c1ccc2oc(N)nc2c1", "note": "(stereo not given)", "MIC": 25},
      {"smiles": "CC(=O)N1N=C(c2ccccc2Br)CC1c1cc(Cl)c2oc(S)nc2c1", "note": "(stereo not given)", "MIC": 12.5},
      {"smiles": "COc1cc(C2CC(c3ccccc3)=NN2C(C)=O)cc2nc(S)oc12", "note": "(stereo not given)", "MIC": 12.5},
      {"smiles": "CC(=O)N1N=C(c2ccccc2Br)CC1c1ccc(O)c(N)c1", "note": "(stereo not given)", "MIC": 12.5},
      {"smiles": "COc1cc(C2CC(c3ccccc3Br)=NN2C(C)=O)cc(N)c1O", "note": "(stereo not given)", "MIC": 3.25},
      {"smiles": "COc1cc(C2CC(c3ccccc3)=NN2C(C)=O)cc2nc(N)oc12", "note": "(stereo not given)", "MIC": 6.25},
      {"smiles": "COc1cc(C2CC(c3ccccc3Br)=NN2C(C)=O)cc2nc(N)oc12", "note": "(stereo not given)", "MIC": 25},
      {"smiles": "CC(=O)N1N=C(c2ccccc2Br)CC1c1cc(Cl)c2oc(N)nc2c1", "note": "(stereo not given)", "MIC": 25},
      {"smiles": "CC(=O)N1N=C(c2ccccc2)CC1c1cc(Cl)c2oc(S)nc2c1", "note": "(stereo not given)", "MIC": 25},
      {"smiles": "COc1cc(C2CC(c3ccccc3)=NN2C(C)=O)cc(N)c1O", "note": "(stereo not given)", "MIC": 25},
      {"smiles": "NNC(=O)c1ccncc1", "note": "[ISONIAZID]", "MIC": 6.25},
      {"smiles": "CC(=O)N1N=C(c2ccccc2)CC1c1ccc2oc(S)nc2c1", "note": "(stereo not given)", "MIC": 25},
      {"smiles": "CC(=O)N1N=C(c2ccccc2)CC1c1ccc(O)c(N)c1", "note": "(stereo not given)", "MIC": 25},
      {"smiles": "COc1cc(C2CC(c3ccc(Cl)cc3Cl)=NN2C(C)=O)cc(N)c1O", "note": "(stereo not given)", "MIC": 12.5},
      {"smiles": "COc1cc(C2CC(c3ccc(F)cc3)=NN2C(C)=O)cc(N)c1O", "note": "(stereo not given)", "MIC": 25},
      {"smiles": "COc1cc(C2CC(c3ccc(F)cc3)=NN2C(C)=O)cc2nc(N)oc12", "note": "(stereo not given)", "MIC": 25}
    ]}
  ]
}
